One may read the IC50 as the concentration at which inhibition is half-maximal. A lower IC50 goes with greater potency.

In the assay the target is Complement factor D (Homo sapiens, UniProt P00746). In words: Factor D Assay. The protocol:
Human Factor D (purified from human serum, Complement Technology, Inc.) at 80 nM final concentration is incubated with test compound at various concentrations for 5 min at room temperature in 50 mM Tris, 1M NaCl, pH 7.5. A synthetic substrate Z-L-Lys-SBz and DTNB (Ellman's reagent) are added to final concentrations of 100 μM each. Absorbance at 405 nm (A405) is recorded at 30 second intervals for 30 min using a microplate spectrophotometer. IC50 values are calculated by nonlinear regression of complement Factor D reaction rates as a function of test compound concentration.

Chain of Complement factor D (P00746 whole entry): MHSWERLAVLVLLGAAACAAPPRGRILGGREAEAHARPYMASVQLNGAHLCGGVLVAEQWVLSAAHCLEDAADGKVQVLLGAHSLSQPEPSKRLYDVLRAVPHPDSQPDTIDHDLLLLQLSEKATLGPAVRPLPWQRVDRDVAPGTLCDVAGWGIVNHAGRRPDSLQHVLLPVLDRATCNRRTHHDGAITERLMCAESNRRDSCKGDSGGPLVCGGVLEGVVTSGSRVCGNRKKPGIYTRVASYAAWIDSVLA

As to `CC(=O)c1nn(CC(=O)N2C[C@H]3C[C@H]3[C@H]2C(=O)N2C[C@H]3C[C@H]3C2C(=O)Nc2nc(Br)ccc2C)c2c(C)cc(-c3cnc(C)nc3)cc12` (stereo partly specified) [US11084800, Cpd No. 92], the IC50 result is “in the range around 5.5 µM”.

Source of the values: BindingDB's records for patent US11084800 (Achillion Pharmaceuticals, 2021).
